{"source": "patent US20050075398A1", "about": "“Neuroprotectin D1 protects against cellular apoptosis, stroke damage, alzheimer's disease and retinal diseases” (priority 2003, published 2005)", "key": {"[1]": {"test_system": "Bik gene expression", "assay": "HGU133 GeneChip DNA array in HN cells: Bik", "format": "cell-based, human", "conditions": "Aβ42 25 μM, DHA 50 nM or NPD1 50 nM, 18 h, nsc = no significant change", "source_text": "RNA Isolation and Spectral Quality. Brain tissues were rapidly processed, and total RNA was extracted using Trizol reagent (Invitrogen, Carlsbad, Calif.). Total RNA quality and abundance were profiled using RNA Nano LabChips (Caliper Technologies, Mountainview, Calif.; Agilent Technologies, Palo Alto, Calif.).\nProbe Synthesis and GeneChip Hybridization. Biotinylated antisense cRNAs were synthesized from cDNA using the Superscript Choice System (Invitrogen) and Enzo Biorray High Yield RNA Transcript Labeling kits according to the manufacturer's protocols (Affymetrix) and as described in Colangelo, V., Schurr, J., Ball, M. J., Pelaez, R. P., Bazan, N. G., Lukiw, W. J. (2002) J. Neurosci. Res., 70: 462-473; and Lukiw, W. J. (2004) Neurochem. Research, 29: 1287-1297. Probes were hybridized against HU133Av2 GeneChip DNA arrays that interrogate approximately 33,000 full-length […] genes and expressed sequence tag (EST) clusters. […]\nGeneChip Data and Statistical Analysis. […] Volcano plots were plotted representing total gene expression patterns as a function of fold-change as compared to expression patterns of age-matched controls as plotted against p, as calculated by an analysis of variance (ANOVA). […] Statistical significance was analyzed using a two-way factorial analysis of variance (p, ANOVA; Statistical Analysis System; SAS Institute, Cary, N.C. )."}, "[2]": {"test_system": "human COX-2 promoter", "assay": "IL-1β-induced human COX-2 promoter-luciferase assay in ARPE-19 cells", "format": "cell-based", "conditions": "IL-1β 10 ng/ml 8 h, NPD1 0.05 to 100 nM, read-out: IC50, IL-1β induction of the COX-2 promoter", "experimental": "Transfection of ARPE-19 cells with human COX-2 (830 bp): ARPE-19 cells growing in 12-well plates were transfected with 5 μg human COX-2-luciferase construct (830 bp) by FuGENE-6 (obtained from Drs. S. Prescott and D. Dixon, Vanderbilt University, Nashville, Tenn.). Four hours later, the medium containing FuGENE-6 was removed, fresh DMEM-F12 (10% FBS) was added, and the cells further incubated 8 h at 37° C. Transfected cells were serum-starved for 4 h and challenged with IL-1β (10 ng/ml) for 8 h with or without NPD1. NPD1 was added at concentrations from 0.05 to 100 nm. Eight hours later, cell homogenates were made, protein concentrations were adjusted, and luciferase assays were performed using 20 μg equivalent protein in Monolight 2010 for 20 seconds with luciferin as substrate, as described below.\nLuciferase assay: The medium containing IL-1β and NPD1 was removed, and the cells were washed with 1 ml cold PBS. The cells were scraped and centrifuged 2500×g for 20 minutes at 4° C. The cell pellet was re-suspended in 500 μl of 2×luciferase assay buffer (ALL, 0.2 mM tricine, 2 mM DTT, 30 mM MgSO4 and 10 mM ATP). […] The relative light units were determined by using an ALL luminometer recording over a 20-second interval, as described in Bazan, N. G., Fletcher, B. S., Herschman, H. R. & Mukherjee, P. K. (1994) Proc. Natl. Acad. Sci. U.S.A. 91:5252-5256. […]"}, "[3]": {"test_system": "Bax", "assay": "Western blot of Bax in ARPE-19 cells under TNFα/H2O2", "format": "cell-based, human", "conditions": "50 nM; 800 μM H2O2 along with TNFα, 6 h", "experimental": "Analysis of pro- and anti-apoptotic proteins in ARPE-19 cells: Bcl-2 family proteins were analyzed by Western-blot analysis. In brief, 20-μg equivalents of each cell extract were subjected to electrophoresis on a 8-16% gel (Promega, Madison, Wis.) at 125 volts for 2 h. The proteins were transferred to nitrocellulose membrane at 30 volts for 1 h at 4° C. The membranes were subjected to treatment with primary antibodies of Bcl-2, Bcl-xL, Bax, and Bad for 1 h at room temperature, and probed 30 min with secondary antibody, goat anti-rabbit Ig:HRPO and HRP-conjugated anti-biotin antibody. (BD Sciences—Pharminogen, San Diego, Calif.) Then proteins were evaluated using an ECL kit. (Amersham Biosciences Corp., Piscataway, N.J.)\nUsing the same TNFα/H2O2 concentrations, Bcl-2 proteins were assayed. Cells were grown for 72 h after plating, placed in serum-free medium for 1 h, then incubated with TNFα/H2O2 for 6 h. Protein expression and Western-blot analysis were performed as described in Example 13. Data in FIGS. 14A, 14B, 14C and 14D represent four independent experiments with triplicate samples in each case. Anti-apoptotic protein Bcl-xL was enhanced in ARPE-19 cells by TNFα/H2O2 (800 μM) (FIG. 14B, first bar), whereas Bcl-2 was not changed (FIG. 14A, first bar)."}, "[4]": {"test_system": "CEX-1 gene expression", "assay": "HGU133 GeneChip DNA array in HN cells: CEX-1", "format": "cell-based, human", "conditions": "Aβ42 25 μM, DHA 50 nM or NPD1 50 nM, 18 h, nsc = no significant change"}}, "note": "pIC50: −log10 of the molar value.", "data": [{"smiles": "CC/C=C\\C[C@H](O)\\C=C/C=C/C=C/[C@H](O)C/C=C\\C/C=C\\CCC(=O)O", "note": "[NPD1, 10,17S-docosatriene]", "values": [{"measurement": "Bik gene expression, fold change over untreated controls", "setting": "[1]", "result": "nsc"}, {"measurement": "pIC50", "setting": "[2]", "result": "> 8.30"}, {"measurement": "decrease of the up regulation of Bax", "setting": "[3]", "result": 65, "unit": "%"}, {"measurement": "CEX-1 gene expression, fold change over untreated controls", "setting": "[4]", "result": "nsc"}]}]}
